Data set [1] deals with AkmNan0625 and AkmNan1835. The data set is described as follows: Specificity of AkmNan0625 and AkmNan1835 against sialylated oligosaccharides (HPAEC-PAD). In kind it is biochemical, Akkermansia muciniphila. On the set-up: key to Activity, AkmNan0625 and AkmNan1835: +: Activity was defined as disappearance of the substrate peak and appearance of a lower molecular weight peak which could correspond to the desialylated substrate. The settings on record: for Activity, AkmNan0625 and AkmNan1835: 1 mM substrate, 1 nM enzyme, 37° C., pH 6.5, overnight. The text has this: All chemicals were obtained from Sigma (St. Louis, US) unless otherwise stated. The Akkermansia muciniphila sialidases, termed here AkmNan0625 and AkmNan1835, were obtained by His-Tag overexpression of their genes (Amuc_0625 and Amuc_1835, respectively (van Passel, M. W. et al. The genome of Akkermansia muciniphila, a dedicated intestinal mucin degrader, and its use in exploring intestinal metagenomes. Plos One 6, e16876 (2011)) in E. coli BL21(DE3) and subsequent purification to homogeneity by immobilised metal affinity chromatography (IMAC) as described below. The sialylated oligosaccharides and OC were obtained from Carbosynth (Berks, UK).

Data set [2] deals with RgNanH. The data set is described as follows: Specificity of RgNanH against sialylated oligosaccharides (HPAEC-PAD). In kind it is biochemical, Ruminococcus gnavus ATCC 29149. On the set-up: key to Activity, RgNanH: +: Activity was defined as disappearance of the substrate peak and appearance of a lower molecular weight peak which could correspond to the desialylated substrate. The note with it: for Activity, RgNanH: 1 mM substrate, 1 nM enzyme, 37° C., pH 6.5, overnight.

Data set [3] deals with RgNanH. The data set can be described thus: Kinetic analysis of RgNanH with sialylated substrates. The settings on record: 37° C., pH 6.5; for Ki: read-out: Ki (substrate inhibition).
Data set [4] concerns the target T1, Ruminococcus gnavus ATCC 29149 sialidase RgNanH (intramolecular trans-sialidase, IT-sialidase), wild type, full length excluding signal sequence residues 1-25, (Mediterraneibacter gnavus, UniProt A7B557).
T1 sequence (A7B557 26-723): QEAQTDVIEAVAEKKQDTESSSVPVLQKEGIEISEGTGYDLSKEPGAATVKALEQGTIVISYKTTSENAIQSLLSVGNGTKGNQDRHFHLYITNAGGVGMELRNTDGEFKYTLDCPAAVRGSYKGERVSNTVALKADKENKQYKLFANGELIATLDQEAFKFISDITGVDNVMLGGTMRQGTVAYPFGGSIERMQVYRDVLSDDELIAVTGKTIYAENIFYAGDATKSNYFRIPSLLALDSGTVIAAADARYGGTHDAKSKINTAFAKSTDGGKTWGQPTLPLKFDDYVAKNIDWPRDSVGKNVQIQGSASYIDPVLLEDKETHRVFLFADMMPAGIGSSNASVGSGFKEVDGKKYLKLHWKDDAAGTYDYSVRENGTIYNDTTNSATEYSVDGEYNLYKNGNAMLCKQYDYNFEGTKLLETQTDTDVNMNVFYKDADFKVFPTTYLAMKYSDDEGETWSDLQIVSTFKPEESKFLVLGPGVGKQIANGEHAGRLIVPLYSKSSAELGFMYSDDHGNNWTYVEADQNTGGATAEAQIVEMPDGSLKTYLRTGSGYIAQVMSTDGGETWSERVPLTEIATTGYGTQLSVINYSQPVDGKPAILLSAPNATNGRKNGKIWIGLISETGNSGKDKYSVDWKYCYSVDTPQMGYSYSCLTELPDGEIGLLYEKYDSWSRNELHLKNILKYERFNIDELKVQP
The settings on record: 37° C., pH 6.5.

In data set [5] the target is T2, RgNanH (Mediterraneibacter gnavus, UniProt A7B557).
T2 sequence (A7B557 26-723): T1 sequence (A7B557 26-723)
The data set is described as follows: Inhibition of RgNanH activity against 4MU-Neu5Ac by neuraminidase inhibitors. The settings on record: for Inhibition of RgNanH (in words): 4MU-Neu5Ac 0.51 mM, 1 nM enzyme, Neu5Ac 0-0.3 mM, Lac 0-1.5 mM.

The target in data set [6] is T2, RgNanH. The settings on record: 1 mg/ml glycoprotein, 37° C., pH 6.5, overnight.
Substrate in data set [7]: CC(=O)N[C@H]1[C@H]([C@H](O)[C@H](O)CO)O[C@@](Oc2ccc3c(C)cc(=O)oc3c2)(C(=O)O)C[C@@H]1O
The data set can be described thus: purified protein, by the assay type. The note with it: other: 37° C., pH 6.5, * estimated value, ± standard error of the mean.

The mark [8] stands for this setting: * estimated value, ± standard error of the mean.

Results on 19 molecules are retold here after US20190037899A1, “Intramolecular Trans-Sialidase” (THE INSTITUTE OF FOOD RESEARCH, priority 2016, published 2019).

Values joined by “and” are separate entries in the source; they are usually repeats but may differ in a detail not shown here. Equal entries are not always repeated. Marks after values point to notes of the source that are not given here.

In the case of “Neu5Ac-α-2-6-Gal-β-1-4-GlcNAc [6′-α-sialyl-N-acetyllactosamine]”, the “Activity, AkmNan0625 and AkmNan1835” value in data set [1] is “+”.

`CC(=O)N[C@H]1[C@H]([C@H](O)[C@H](O)CO)O[C@@](O[C@H]2[C@@H](O)[C@@H](CO)O[C@@H](O[C@H]3[C@H](O)[C@@H](O)C(O)O[C@@H]3CO)[C@@H]2O)(C(=O)O)C[C@@H]1O` (stereo partly drawn) [3′SL, Neu5Ac-α-2-3-Gal-β-1-4-Glc]: the “Activity, RgNanH” value with RgNanH [2] is on record as “+”. In data set [1], the “Activity of AkmNan0625 and AkmNan1835 on substrate (in words)” value is listed as “active”; the “Activity, AkmNan0625 and AkmNan1835” value is on record as “+”. Further, in the data set on RgNanH [3], the KM result is listed as “below detection limit”; the Km is below 100 µM; the Vmax worked out at 0.0566 ± 0.0057 µM/min; the kcat is 25.7 min⁻¹ and 25.70 min⁻¹. Besides, at RgNanH [3], the Ki is 760 µM. In addition, in data set [4] (setting [8]), the KM result is “below detection limit” and the Km is below 100 µM. Moreover, the kcat/KM in data set [4] (** calculated using estimated value) is >>2.57 × 10^2** min^−1 · mM^−1.

`CC(=O)N[C@H]1[C@H]([C@H](O)[C@H](O)CO)O[C@@](Oc2ccc([N+](=O)[O-])cc2)(C(=O)O)C[C@@H]1O` [PNP-Neu5Ac, 2-O-(p-Nitrophenyl)-α-D-N-acetylneuraminic acid]: the KM result in data set [4] (setting [8]) is reported as “high KM”.

`CC(=O)N[C@H]1NC[C@H](C(=O)O)[C@H](O)[C@@H]1O` [Siastatin B] returned an IC50 at RgNanH [5] (Table 2, substrate 4MU-Neu5Ac 0.51 mM, RgNanH 1.00 nM) of 4.87 µM.

As to `CC(=O)N[C@H]1[C@H]([C@H](O)[C@H](O)CO)O[C@@](O[C@H]2[C@@H](O)[C@@H](CO)O[C@@H](O[C@H]3[C@H](O[C@@H]4O[C@@H](C)[C@@H](O)[C@@H](O)[C@@H]4O)[C@@H](NC(C)=O)C(O)O[C@@H]3CO)[C@@H]2O)(C(=O)O)C[C@@H]1O` (stereo partly drawn) [3′-sialyl Lewis X, Neu5Ac-α-2-3-Gal-β-1-4-[Fuc-a1-3]-GlcNAc], the “Activity, RgNanH” value with RgNanH [2] is reported as “+”. Further, the “Activity, AkmNan0625 and AkmNan1835” value in data set [1] is reported as “+”.

Take asialo-fetuin: the “Activity of RgNanH against glycoprotein (2,7-anhydro-Neu5Ac peaks by 1H NMR)” value on RgNanH [6] was “no change”.

Consider `CC(=O)N[C@H]1[C@H]([C@H](O)[C@H](O)CO)O[C@@](Oc2ccc3c(C)cc(=O)oc3c2)(C(=O)O)C[C@@H]1O` [4MU-Neu5Ac, 2′-(4-Methylumbelliferyl)-α-D-N-acetylneuraminic acid], for which, in the data set with RgNanH [3], the Km was 590 µM, the kcat is 6210 min⁻¹ and the Ki turned out to be 2370 µM.

As to `CC(=O)NC1C(O)C=C(C(=O)O)OC1C(O)C(O)CO` [Neu5Ac2en, 2-deoxy-2,3-didehydro-D-N-acetylneuraminic acid], the IC50 was 1410 µM against RgNanH [5] (IC50, Table 2, substrate 4MU-Neu5Ac 0.51 mM, RgNanH 1.00 nM) and 1400 µM at RgNanH [5] (IC50, substrate 4MU-Neu5Ac).

Regarding `CC(=O)NC1C(O)CC(Oc2ccc([N+](=O)[O-])cc2)(C(=O)O)OC1C(O)C(O)CO` [PNP-Neu5Ac, 2-O-(p-Nitrophenyl)-α-D-N-acetylneuraminic acid], in the data set on RgNanH [3], the KM entry was “high”, the Km was above 25000 µM and the kcat is recorded as <152** min^−1.

Take `CC(=O)N[C@H]1[C@H]([C@H](O)[C@H](O)CO)OC(C(=O)O)=C[C@@H]1N=C(N)N` [Zanamivir, 4-guanidino-Neu5Ac2en]: half-maximal inhibition at RgNanH [5] (substrate 4MU-Neu5Ac) (IC50) was put at 11900 µM.

With `CC(=O)N[C@H]1[C@H]([C@H](O)[C@H](O)CO)OC(O)(C(=O)O)C[C@@H]1O` (some centres unmarked) [Neu5Ac, N-Acetylneuraminic acid], the “Inhibition of RgNanH (in words)” value at RgNanH [5] was “not inhibited”.

Turning to Neu5Ac-α-2-6-Gal-β1-4-Glc [6′SL], the “Enzymatic activity of RgNanH on substrate (in words)” value in the data set with RgNanH [2] was “no enzymatic activity”. In addition, in data set [1], the “Activity of AkmNan0625 and AkmNan1835 on substrate (in words)” value is on record as “active”; the “Activity, AkmNan0625 and AkmNan1835” value is “+”.

With `CC(=O)NC1C(O)CC(OC2C(O)C(O)OC(CO)C2O)(C(=O)O)OC1C(O)C(O)CO` (stereo not drawn) [3′ sialylgalactose, Neu5Ac-α-2-3-Gal], the “Activity, RgNanH” value in the data set on RgNanH [2] is “+”. The “Activity, AkmNan0625 and AkmNan1835” value in data set [1] is given as “+”.

`CC(=O)N[C@H]1[C@H]([C@H](O)[C@H](O)CO)O[C@@](O[C@H]2[C@@H](O)[C@@H](CO)O[C@@H](O[C@H]3[C@H](O[C@@H]4O[C@@H](C)[C@@H](O)[C@@H](O)[C@@H]4O)[C@@H](O)C(O)O[C@@H]3CO)[C@@H]2O)(C(=O)O)C[C@@H]1O` (stereo partly drawn) [3′ sialyl-3-fucosyllactose, Neu5Ac-α-2-3-Gal-β1-4-[Fuc-α-1-3]-Glc]: the “Activity, RgNanH” value in the data set on RgNanH [2] is “+”. Moreover, the “Activity, AkmNan0625 and AkmNan1835” value in data set [1] is on record as “+”.

Take “Neu5Ac-α-2-3-Gal-β-1-4-GlcNAc [3′-α-sialyl-N-acetyllactosamine]”: the “Activity, RgNanH” value in the data set on RgNanH [2] is listed as “+”. Besides, the “Activity, AkmNan0625 and AkmNan1835” value in data set [1] is “+”.

Take `CO[C@@H]1O[C@H](CO)[C@@H](O[C@@H]2O[C@H](CO)[C@H](O)[C@H](O[C@]3(C(=O)O)C[C@H](O)[C@@H](NC(C)=O)[C@H]([C@H](O)[C@H](O)CO)O3)[C@H]2O)[C@H](O[C@@H]2O[C@@H](C)[C@@H](O)[C@@H](O)[C@@H]2O)[C@H]1NC(C)=O` [3′ sialyl Lewis X methyl glycoside, Neu5Ac-α-2-3-Gal-β-1-4-[Fuc-a-1-3]-GlcNAc-β-OMe]: the “Activity, RgNanH” value in the data set on RgNanH [2] is on record as “+”. For the same molecule, the “Activity, AkmNan0625 and AkmNan1835” value in data set [1] is reported as “+”.

On to `CC(=O)N[C@H]1[C@H]([C@H](O)[C@H](O)CO)OC(OC[C@H]2OC(O)[C@H](O)[C@@H](O)[C@H]2O)(C(=O)O)C[C@@H]1O` (stereo partly drawn) [6′ sialylgalactose, Neu5Ac-α-2-6-Gal], for which the “Activity, AkmNan0625 and AkmNan1835” value in data set [1] is listed as “+”.

Consider `OC[C@H]1O[C@@H](O[C@H]2[C@H](O)[C@@H](O)C(O)O[C@@H]2CO)[C@H](O)[C@@H](O)[C@H]1O` (some centres unmarked) [Lactose], for which the “Inhibition of RgNanH (in words)” value on RgNanH [5] is recorded as “not inhibited”.

B1: Ruminococcus gnavus ATCC 29149 sialidase RgNanH (intramolecular trans-sialidase, IT-sialidase), wild type, full length excluding signal sequence residues 1-25, … (protein)
chain: T1 sequence (A7B557 26-723)
On to B1, for which, in data set [7], the Km was 590 ± 170 µM, the Vmax is 1.37 µM/min, the kcat is 104 s⁻¹ and the kcat/Km is 175000 M⁻¹ s⁻¹.

As usually defined, the Km is the substrate concentration at which the rate is half of its maximum. In general, Vmax refers to the top rate of the reaction or transport when substrate is in excess. The kcat is the number of substrate molecules converted per active site and unit of time at saturation. The IC50 is the concentration that inhibits the measured activity by half. One may read the kcat/Km as the turnover number divided by the Michaelis constant.
